Laboratory results: patent US12540164B2, “Peptides for treatment and prevention of nonalcoholic fatty liver disease and fibrosis” (UNIVERSITE DE STRASBOURG, priority 2017, dated 2026)
“Also recorded” adds a separate entry of the source. Ends that are not written are not given here.

What was measured:
ALT = assay: STAM model of non-alcoholic steatohepatitis: plasma biochemistry (ALT); format: in vivo; conditions: STAM NASH mice, 25 μg per mouse SC once weekly 4-9 wks of age, sacrifice 9 wks; n = 6
Experimental: NASH was induced in 12 male mice by a single subcutaneous injection of 200 μg streptozotocin (STZ, Sigma-Aldrich, USA) solution 2 days after birth and feeding with high fat diet (HFD, 57 kcal % fat, Cat #HFD32, CLEA Japan, Inc., Japan) after 4 weeks of age. The peptide was administered subcutaneously in the adipose tissue in a volume of […] per mouse. The peptide was administered at a dose of 25 microgram (μg) per mouse once weekly. For plasma biochemistry, non-fasting blood was collected in polypropylene tubes with anticoagulant (Novo-Heparin, Mochida Pharmaceutical Co. Ltd., Japan) and centrifuged at 1,000×g for 15 minutes at 4° C. The supernatant was collected and stored at −80° C. until use. Plasma ALT level was measured by FUJI DRI-CHEM 7000 (Fujifilm, Japan). Six NASH mice were subcutaneously in the adipose tissue administered vehicle supplemented with ADPIF peptide at a dose of […] per mouse once weekly from 4 to 9 weeks of age.

LOXL2 = assay: Circulating (plasma) LOXL2 ELISA; format: in vivo; conditions: 3 months post a unique injection; DIO-NASH mice
Excerpt: (§1) For LOXL2 and GLP-1 measurements, the two commercially available kits: Lysyl Oxydase Like Protein 2 (LOXL2), Enzyme-linked Immunosorbent Assay Kit, Mus musculus, SEF552Mu, Cloud Clone Corp;

[1] = test system: Sterol regulatory element binding transcription factor 1 (Srebf1); assay: Hepatic expression of Srebf1 (q-PCR); format: in vivo; conditions: 11 days post injection in the adipose tissue; DIO male mice; vs control
Excerpt: (§2) AdipoRed Staining of Liver Sections

GLP-1 = assay: Circulating GLP-1 enzyme immunoassay in plasma; format: in vivo; conditions: 11 days post single adipose tissue injection, high fat/high glucose diet male mice
Experimental: Mice were injected with a single dose of either scramble peptide or PATAD or ADPIF. 11 days post injection, the mice were euthanized, and plasma was obtained and used for determination of circulating GLP1 from mice with the indicated treatment.
as §1
RayBio Human/Mouse/Rat GLP-1 Enzyme Immunoassay Kit, EIA-GLP1, RayBiotech were used with the indicated procedures from the manufacturer.

hepatic lipid droplets = assay: AdipoRed staining of liver sections (lipid droplets); format: in vivo; conditions: 3 months after one unique injection in adipose tissue; DIO male mice; AdipoRed/DAPI cryosections
Experimental: (§3) Mice presented were euthanized and their plasma and organs were sampled for analysis. […] Cryosection of the livers were then stained with Adipored and DAPI to detect the level of lipid droplets. […] Hepatic function is assessed by two liver related strong biomarkers namely (AST (Aspartate Aminotransferase) and ALT (Alanine Aminotransferase)), whose levels increase proportionately with liver damage.
Livers were isolated and briefly washed in PBS buffer (pH 7.4). after weighing the dried liver, for the liver to body weight ratio, a sliced sample of the liver were then placed in 4% paraformaldehyde (in 0.1M sodium phosphate buffer, pH 7.2) for 15 min, washed in PBS and incubated in AdipoRed dye (1/25; Lonza, Switzerland) with 30 μM DAPI (Sigma-Aldrich, USA) for 15 minutes. After 3 washes with PBS samples were mounted on slides and pictures were taken using Zeiss microscope.

[2] = STAM model of non-alcoholic steatohepatitis: body weight, viability and general condition; format: in vivo; conditions: STAM NASH mice, any day during the treatment period
Experimental: (§4) NASH was induced in 12 male mice by a single subcutaneous injection of 200 μg streptozotocin (STZ, Sigma-Aldrich, USA) solution 2 days after birth and feeding with high fat diet (HFD, 57 kcal % fat, Cat #HFD32, CLEA Japan, Inc., Japan) after 4 weeks of age.
(§5) The peptide was administered at a dose of 25 microgram (μg) per mouse once weekly.
(§6) Six NASH mice were subcutaneously in the adipose tissue administered vehicle supplemented with ADPIF peptide at a dose of […] per mouse once weekly from 4 to 9 weeks of age.
The viability, clinical signs and behavior were monitored daily. Body weight was recorded before the treatment. […] The animals were sacrificed at 9 weeks of age by exsanguination through direct cardiac puncture under isoflurane anesthesia (Pfizer Inc.).

[3] = STAM model of non-alcoholic steatohepatitis: liver triglyceride content; format: in vivo; conditions: STAM NASH mice
Experimental: as §4
The peptide was administered subcutaneously in the adipose tissue in a volume of […] per mouse.
as §5
Liver total lipid-extracts were obtained by Folch's method (Folch J. et al., J. Biol. Chem. 1957; 226: 497). Liver samples were homogenized in chloroform-methanol (2:1, v/v) and incubated overnight at room temperature. After washing with chloroform-methanol-water (8:4:3, v/v/v), the extracts were evaporated to dryness, and dissolved in isopropanol. Liver triglyceride content was measured by Triglyceride E-test (Wako Pure Chemical Industries, Ltd., Japan).
as §6

[4] = test system: AST (aspartate aminotransferase); assay: Plasma AST ELISA; format: in vivo, mice; conditions: 3 months after a single subcutaneous peptide injection, n=4
Experimental: as §3
Plasma samples from the indicated mice were used to determine plasma content of either AST (aspartate aminotransferase) or […] (alanine aminotransferase) both robust indicators of liver damage were measured using commercially purchased ELISA kits. These parameters were determined according to manufacturer's procedure. • SEB214Mu (96 Tests): Enzyme-linked Immunosorbent Assay Kit For Aspartate Aminotransferase (AST), Cloud Clone Corp. • SEA207Mu (96 Tests): Enzyme-linked Immunosorbent Assay Kit For Alanine Aminotransferase (ALT), Cloud Clone Corp.

[5] = test system: fatty acid synthase (Fasn); assay: Hepatic expression of de novo lipogenesis gene Fasn (q-PCR); format: in vivo; conditions: 11 days post injection in the adipose tissue; DIO male mice; vs control
Excerpt: as §2

[6] = test system: lysophosphatidylcholines (LPCs); assay: Lysophosphatidylcholines (LPC) lipid content in pancreas, adipose tissue, liver and plasma; format: in vivo, mice; conditions: 25 μg per mouse subcutaneous
Excerpt: (§7) For the lipid composition in the different tissues and plasma, all samples were flashed frozen at the time of sampling, immediately after sacrifice, and were sent to the lipidomic core facility of Dijon, (Plateforme de Lipidomique-uBorgogne INSERM UMR866/Labex LipSTIC).

ceramides = assay: Hepatic ceramides content and profile (lipidomics); format: in vivo, mice; conditions: 3 injections, one per week, in subcutaneous adipose tissue
Excerpt: ADPIF adipose tissue injection has proven to be unexpectedly liver protective relative to a specific decrease in expression levels of FATP2 in the adipose tissue and an associated profile of the FATPs and FFARs in the muscles and liver. As these changes impact circulating population of the different lipids. Ceramides are a group of biological active lipids known to be involved in NAFLD. We measured and determined the effect of ADPIF injections on the ceramides profile following 3 injections of ADPIF at a frequency of one injection per week in the subcutaneous adipose tissue.
as §7

VECTTREKEVLASLDKAAFLTQLHS (not fully specified (bridges)) [ADPIF, R and S carry the stapling, preferably 2-(7-octenyl)arginine and 2-(4-pentenyl)serine]
Plasma ALT (mean ± SD) (ALT): 54 ± 9 U/L
circulation (plasma) levels of LOXL2 (LOXL2): significantly reduced; also recorded: reduced the LOXL2 levels by half
hepatic expression level of Srebf1 [1]: repressed; also recorded: significantly decreased
circulating levels of GLP-1 (GLP-1): restored high circulating levels of GLP1, with ADPIF inducing a greater increase than PATAD; also recorded: more active than PATAD peptide; also recorded: restore GLP1 circulating levels back to lean controls
size of the hepatic lipid droplets (hepatic lipid droplets): clearly showed a decrease; also recorded: global decrease in the sizes of the lipid droplets; also recorded: decrease in the diameter of the lipid droplets
mean body weight compared with the Vehicle group [2]: no significant differences
Liver triglyceride (mean ± SD) ([3]; 25 μg per mouse SC once weekly 4-9 wks of age, sacrifice 9 wks, n = 6): 35.1 ± 17.8 mg/g liver
liver triglyceride content compared with the Vehicle group ([3]; 25 μg per mouse SC once weekly 4-9 wks, Student's t-test): significant decrease
circulating levels of AST [4]: dramatic decrease; also recorded: effective in reducing
hepatic expression level of fatty acid synthase (Fasn) [5]: repressed; also recorded: significantly decreased
level of LPC 18:2 ([6]; adipose tissue and liver): most prominent reduction; also recorded: mostly reduced
levels of lysophosphatidylcholines (LPCs) in the tissues analyzed ([6]; adipose tissue, liver, plasma, euthanized 1 week after last injection): effective in reducing selective LPCS; also recorded: selective decrease of certain LPCs
hepatic ceramides content (ceramides): globally induces a decrease
